# Experimental data from patent US20030139391A1 (priority 2000, published 2003).
# Marks after values point to notes of the source that are not given here.
# Legend:
# Assay type in all cases: in vivo, human
# [1] = tested on: Patients diagnosed with Alzheimer's Disease; assay: ADAS-cog/11 in 5-month slow-titration trial
# Excerpt: (§1) Subjects in the Placebo group received 21 weeks (5 months) of placebo medication.
# All patients were monitored throughout the study, with follow-up and cognitive evaluation at four weeks, three months and five months after the start of the study.
# The ADAS consists of two parts—a cognitive subscale and a behavioral subscale. The behavioral subscale was not be used in this study. The cognitive subscale, the ADAS—cog-11, consisted of Word Recall and Word Recognition memory tests, Object and Finger Naming, Commands, Constructional Praxis, Ideational Praxis, Orientation, Remembering Test Instructions, Spoken language Ability, Comprehension of Spoken language and Word Finding Difficulty was the primary variable in this study.
# To reduce variability due to circadian fluctuations in cognitive status the ADAS was done always at the same time of the day, preferably before noon. Only a trained ADAS rater performed the test. Ideally the ADAS rater was not involved in the treatment of the subject and should have no access to AE (adverse event) reporting.
# The ADAS was performed at visits 1, 2, 3, 4 and 5 (screening, baseline, week 4, week 13 and month 5 or upon early discontinuation of trial medication intake). For word recall and word recognition two parallel wordlists, list A and list B were employed. List A was used at visits 1 and 3, List B at visits 2, 4, and 5 or upon early discontinuation of trial medication intake. For practical reasons the words for word recognition was presented only once. The total score of the 11 cognitive items on the original ADAS cognitive subscale (ADAS-cog/11, Range: 0-70) was recorded.
# For continuous data, a two-way analysis of variance (ANOVA) model with treatment and investigator as factors were used to compare the treatment groups for the change from baseline data. The interaction between treatment and investigator was examined. The impact of the baseline score on change from baseline was evaluated. […] If the parametric methods were deemed inappropriate (normality assumption violated), nonparametric methods such as two-way ANOVA on ranked data, Van Elteren test, controlling for investigator, was used. Following ANOVA, Fisher's LSD procedure was used for pairwise comparisons between each galanthamine group and the placebo group. A linear contrast on the main effect for treatment was used to test the dose response relationship.
# [2] = tested on: Patients diagnosed with Alzheimer's Disease; assay: CIBIC-plus in 5-month slow-titration trial
# Protocol: as §1
# The CIBIC-plus score was a second primary variable. An independent, experienced and properly trained clinician provided a global impression of the subject's deterioration or improvement over the course of the trial, based on separate interviews with the subject and caregivers. If helpful, the CIBIC rater audiotaped or videotaped the baseline interview for future reference.
# The CIBIC-plus was performed at visit 2, 3, 4, and 5 (baseline, week 4, week 13, and month 5 or upon early discontinuation of trial medication intake). Only a trained CIBIC rater performed the test.
# For ordinal categorical variables such as the CIBIC-plus score, the Van Elteren test controlling for investigator was used for the between group comparison. For the nominal data (e.g., events rates), the Cochran-Mantel-Haenszel test for general association controlling for investigator was used. A linear contrast on the proportion of patients that stay the same or improve was used to test for increasing response with increasing dose.
# patients = assay: Side effects and dropout in earlier studies with shorter titration; conditions: for Abdominal Pain: % / Abdominal Pain: number / Diarrhea: % / Diarrhea: number / Dyspepsia: % / Dyspepsia: number / Gastro-intestinal System Disorders, Adverse events: % / Gastro-intestinal System Disorders, Adverse events: number / Nausea: % / Nausea: number / Vomiting: % / Vomiting: number: shorter titration
# Excerpt: In contrast with earlier studies with a shorter titration of the drug the incidence of side effects, particularly gastro-intestinal system disorders, were […]. A example of this is shown below in Table 11.
smiles,measurement,setting,value
"COc1ccc2c3c1O[C@H]1C[C@@H](O)C=C[C@@]31CCN(C)C2 [GAL, galantamine]","Responders, ADAS-cog/11 change ≦ 0 points at Month 5: %",[1]; 8 mg/day,46.5%
same,"Responders, ADAS-cog/11 change ≦ 0 points at Month 5: n",[1]; 8 mg/day,47
same,"Responders, ADAS-cog/11 change ≦ −4 points at Month 5: %",[1]; 8 mg/day,25.7%
same,"Responders, ADAS-cog/11 change ≦ −4 points at Month 5: n",[1]; 8 mg/day,26
same,"Responders, ADAS-cog/11 change ≦ −7 points at Month 5: %",[1]; 8 mg/day,13.9%
same,"Responders, ADAS-cog/11 change ≦ −7 points at Month 5: n",[1]; 8 mg/day,14
same,"Responders, ADAS-cog/11 change ≦ −10 points at Month 5: %",[1]; 8 mg/day,5.9%
same,"Responders, ADAS-cog/11 change ≦ −10 points at Month 5: n",[1]; 8 mg/day,6
same,"Responders, ADAS-cog/11 change ≦ 0 points at Month 5: %",[1]; 16 mg/day,65.4%
same,"Responders, ADAS-cog/11 change ≦ 0 points at Month 5: n",[1]; 16 mg/day,136
same,"Responders, ADAS-cog/11 change ≦ −4 points at Month 5: %",[1]; 16 mg/day,35.6%
same,"Responders, ADAS-cog/11 change ≦ −4 points at Month 5: n",[1]; 16 mg/day,74
same,"Responders, ADAS-cog/11 change ≦ −7 points at Month 5: %",[1]; 16 mg/day,15.9%
same,"Responders, ADAS-cog/11 change ≦ −7 points at Month 5: n",[1]; 16 mg/day,33
same,"Responders, ADAS-cog/11 change ≦ −10 points at Month 5: %",[1]; 16 mg/day,7.2%
same,"Responders, ADAS-cog/11 change ≦ −10 points at Month 5: n",[1]; 16 mg/day,15
same,"Responders, ADAS-cog/11 change ≦ 0 points at Month 5: %",[1]; 24 mg/day,64.9%
same,"Responders, ADAS-cog/11 change ≦ 0 points at Month 5: n",[1]; 24 mg/day,137
same,"Responders, ADAS-cog/11 change ≦ −4 points at Month 5: %",[1]; 24 mg/day,37.0%
same,"Responders, ADAS-cog/11 change ≦ −4 points at Month 5: n",[1]; 24 mg/day,78
same,"Responders, ADAS-cog/11 change ≦ −7 points at Month 5: %",[1]; 24 mg/day,22.3%
same,"Responders, ADAS-cog/11 change ≦ −7 points at Month 5: n",[1]; 24 mg/day,47
same,"Responders, ADAS-cog/11 change ≦ −10 points at Month 5: %",[1]; 24 mg/day,10.4%
same,"Responders, ADAS-cog/11 change ≦ −10 points at Month 5: n",[1]; 24 mg/day,22
same,"Change from baseline in ADAS-cog/11 at Month 5, Mean (SE)","[1]; LOCF, 8 mg/day, no titration",0.4 (0.52)▪
same,"Change from baseline in ADAS-cog/11 at Month 5, Mean (SE)","[1]; LOCF, 16 mg/day after 4-week titration",−1.4 (0.35)***^♭
same,"Change from baseline in ADAS-cog/11 at Month 5, Mean (SE)","[1]; LOCF, 24 mg/day after 8-week titration",−1.4 (0.39)***^♭
same,"Change from baseline in ADAS-cog/11 at Month 5, Mean (SE)","[1]; observed case, 8 mg/day, no titration",0.1 (0.58)*
same,"Change from baseline in ADAS-cog/11 at Month 5, Mean (SE)","[1]; observed case, 16 mg/day after 4-week titration",−1.5 (0.40)***^†
same,"Change from baseline in ADAS-cog/11 at Month 5, Mean (SE)","[1]; observed case, 24 mg/day after 8-week titration",−1.8 (0.44)***^†
same,"CIBIC-plus at Month 5, Improved/no change: %","[2]; LOCF, 8 mg/day",53%
same,"CIBIC-plus at Month 5, Improved/no change: n","[2]; LOCF, 8 mg/day",68
same,"CIBIC-plus at Month 5, Improved/no change: %","[2]; LOCF, 16 mg/day",66%
same,"CIBIC-plus at Month 5, Improved/no change: n","[2]; LOCF, 16 mg/day",169
same,"CIBIC-plus at Month 5, Improved/no change: %","[2]; LOCF, 24 mg/day",64%
same,"CIBIC-plus at Month 5, Improved/no change: n","[2]; LOCF, 24 mg/day",162
same,"CIBIC-plus at Month 5, Improved/no change: %","[2]; observed case, 8 mg/day",51%
same,"CIBIC-plus at Month 5, Improved/no change: n","[2]; observed case, 8 mg/day",54
same,"CIBIC-plus at Month 5, Improved/no change: %","[2]; observed case, 16 mg/day",68%
same,"CIBIC-plus at Month 5, Improved/no change: n","[2]; observed case, 16 mg/day",143
same,"CIBIC-plus at Month 5, Improved/no change: %","[2]; observed case, 24 mg/day",64%
same,"CIBIC-plus at Month 5, Improved/no change: n","[2]; observed case, 24 mg/day",136
same,Abdominal Pain: %,patients; 18 mg,2.3%
same,Abdominal Pain: number,patients; 18 mg,2
same,Diarrhea: %,patients; 18 mg,2.3%
same,Diarrhea: number,patients; 18 mg,2
same,Dyspepsia: %,patients; 18 mg,5.7%
same,Dyspepsia: number,patients; 18 mg,5
same,"Gastro-intestinal System Disorders, Adverse events: %",patients; 18 mg,31.8%
same,"Gastro-intestinal System Disorders, Adverse events: number",patients; 18 mg,28
same,Nausea: %,patients; 18 mg,17.0%
same,Nausea: number,patients; 18 mg,15
same,Vomiting: %,patients; 18 mg,17.0%
same,Vomiting: number,patients; 18 mg,15
same,Abdominal Pain: %,patients; 24 mg,7.4%
same,Abdominal Pain: number,patients; 24 mg,36
same,Diarrhea: %,patients; 24 mg,9.6%
same,Diarrhea: number,patients; 24 mg,47
same,Dyspepsia: %,patients; 24 mg,4.3%
same,Dyspepsia: number,patients; 24 mg,21
same,"Gastro-intestinal System Disorders, Adverse events: %",patients; 24 mg,49.0%
same,"Gastro-intestinal System Disorders, Adverse events: number",patients; 24 mg,239
same,Nausea: %,patients; 24 mg,35.2%
same,Nausea: number,patients; 24 mg,172
same,Vomiting: %,patients; 24 mg,19.1%
same,Vomiting: number,patients; 24 mg,93
same,Abdominal Pain: %,patients; 32 mg,8.4%
same,Abdominal Pain: number,patients; 32 mg,59
same,Diarrhea: %,patients; 32 mg,12.9%
same,Diarrhea: number,patients; 32 mg,91
same,Dyspepsia: %,patients; 32 mg,4.5%
same,Dyspepsia: number,patients; 32 mg,32
same,"Gastro-intestinal System Disorders, Adverse events: %",patients; 32 mg,55.8%
same,"Gastro-intestinal System Disorders, Adverse events: number",patients; 32 mg,393
same,Nausea: %,patients; 32 mg,37.6%
same,Nausea: number,patients; 32 mg,265
same,Vomiting: %,patients; 32 mg,18.6%
same,Vomiting: number,patients; 32 mg,131
same,dropout rate due to cholinergic side effects,"patients; 36 mg daily in three doses, two week titration",50%
same,Abdominal Pain: %,patients; 36 mg,1.9%
same,Abdominal Pain: number,patients; 36 mg,1
same,Diarrhea: %,patients; 36 mg,3.7%
same,Diarrhea: number,patients; 36 mg,2
same,Dyspepsia: %,patients; 36 mg,0 (0%)
same,Dyspepsia: number,patients; 36 mg,0 (0%)
same,"Gastro-intestinal System Disorders, Adverse events: %",patients; 36 mg,50.0%
same,"Gastro-intestinal System Disorders, Adverse events: number",patients; 36 mg,27
same,Nausea: %,patients; 36 mg,37.0%
same,Nausea: number,patients; 36 mg,20
same,Vomiting: %,patients; 36 mg,16.7%
same,Vomiting: number,patients; 36 mg,9
same,Abdominal Pain: %,patients; flexable dose,1.9%
same,Abdominal Pain: number,patients; flexable dose,18
same,Diarrhea: %,patients; flexable dose,14.6%
same,Diarrhea: number,patients; flexable dose,38
same,Dyspepsia: %,patients; flexable dose,3.4%
same,Dyspepsia: number,patients; flexable dose,9
same,"Gastro-intestinal System Disorders, Adverse events: %",patients; flexable dose,51.0%
same,"Gastro-intestinal System Disorders, Adverse events: number",patients; flexable dose,133
same,Nausea: %,patients; flexable dose,32.2%
same,Nausea: number,patients; flexable dose,84
same,Vomiting: %,patients; flexable dose,14.6%
same,Vomiting: number,patients; flexable dose,38
